According to patent US7138361B2, “Herbicidal heterocycles” (E. I. du Pont de Nemours and Company, priority 2000, dated 2006):

Key:
Assay in all cases: Test C preemergence
Type in all cases: in vivo
[1] = system: Sunflower; conditions: Rate 62 g/ha, scale 0 to 100
[2] = system: Nightshade; conditions: Rate 500 g/ha, visual evaluation after 12 to 14 days
[3] = system: Sunflower; conditions: Rate 250 g/ha, scale 0 to 100, 0 no effect, 100 complete control
[4] = system: pigweed (Amaranthus retroflexus); conditions: for Plant response rating (0 to 100), Pigweed: Rate 500 g/ha, visual evaluation after 12 to 14 days
How it was run: (§1)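 Formulation: non-phytotoxic solvent mix incl. surfactant. Pre: applied right after planting. Post: 1–4-leaf seedlings. Read: visual 0–100, day 12–14, greenhouse.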

[5] = system: common ragweed (Ambrosia elatior); conditions: for Plant response rating (0 to 100), Ragweed, Common: Rate 500 g/ha, visual evaluation after 12 to 14 days
How it was run: as §1

[6] = system: yellow nutsedge (Cyperus esculentus); conditions: for Plant response rating (0 to 100), Nutsedge: Rate 500 g/ha, visual evaluation after 12 to 14 days
How it was run: as §1

[7] = system: Nightshade
[8] = system: velvetleaf (Abutilon theophrasti); conditions: for Plant response rating (0 to 100), Velvetleaf: Rate 500 g/ha, visual evaluation after 12 to 14 days
How it was run: as §1

[9] = system: lambsquarters (Chenopodium album); conditions: for Plant response rating (0 to 100), Lambsquarters: Rate 500 g/ha, visual evaluation after 12 to 14 days
How it was run: as §1

[10] = system: woolly cupgrass (Eriochloa villosa); conditions: for Plant response rating (0 to 100), Cupgrass, Woolly: Rate 500 g/ha, visual evaluation after 12 to 14 days
How it was run: as §1

[11] = system: Sunflower; conditions: Rate 125 g/ha; scale 0 to 100, 0 no effect, 100 complete control
[12] = system: soybean (Glycine max); conditions: for Plant response rating (0 to 100), Soybean: Rate 500 g/ha, visual evaluation after 12 to 14 days
How it was run: as §1

[13] = system: morningglory (Ipomoea hederacea); conditions: for Plant response rating (0 to 100), Morningglory: Rate 500 g/ha, visual evaluation after 12 to 14 days
How it was run: as §1

[14] = system: giant foxtail (Setaria faberii); conditions: for Plant response rating (0 to 100), Foxtail, Giant: Rate 500 g/ha, visual evaluation after 12 to 14 days
How it was run: as §1

[15] = system: corn (Zea mays); conditions: for Plant response rating (0 to 100), Corn: Rate 500 g/ha, visual evaluation after 12 to 14 days
How it was run: as §1

[16] = system: kochia (Kochia scoparia); conditions: for Plant response rating (0 to 100), Kochia: Rate 500 g/ha, visual evaluation after 12 to 14 days
How it was run: as §1

[17] = system: crabgrass (Digitaria sanguinalis); conditions: for Plant response rating (0 to 100), Crabgrass: Rate 500 g/ha, visual evaluation after 12 to 14 days
How it was run: as §1

[18] = system: johnsongrass (Sorghum halepense); conditions: for Plant response rating (0 to 100), Johnsongrass: Rate 500 g/ha, visual evaluation after 12 to 14 days
How it was run: as §1

[19] = system: bermudagrass (Cynodon dactylon); conditions: for Plant response rating (0 to 100 where 0 is no effect and 100 is complete control), Bermudagrass: Rate 500 g/ha, visual evaluation after 12 to 14 days
How it was run: as §1

[20] = system: cocklebur (Xanthium strumarium); conditions: for Plant response rating (0 to 100), Cocklebur: Rate 500 g/ha, visual evaluation after 12 to 14 days
How it was run: as §1

[21] = system: Surinam grass (Brachiaria decumbens); conditions: for Plant response rating (0 to 100), Surinam grass: Rate 500 g/ha, visual evaluation after 12 to 14 days
How it was run: as §1

[22] = system: goosegrass (Eleusine indica); conditions: for Plant response rating (0 to 100), Goosegrass: Rate 500 g/ha, visual evaluation after 12 to 14 days
How it was run: as §1

[23] = Rate 125 g/ha, scale 0 to 100, 0 no effect, 100 complete control
[24] = preemergence, Rate 62 g/ha, scale 0 to 100
[25] = preemergence, Rate 250 g/ha, scale 0 to 100, 0 no effect, 100 complete control
[26] = Rate 250 g/ha, scale 0 to 100, 0 no effect, 100 complete control

Compound: CCC(CC)c1ccn(C2OCN(c3cccc(OC(F)F)c3)C2=O)n1 (centres unmarked) [Compound 131]
- Plant response rating, Sunflower [1]: 20
- Plant response rating (0 to 100), Nightshade [2]: 100
- Plant response rating, Sunflower [3]: 20
- Plant response rating, Pigweed [4, 23]: 90
- Plant response rating, Pigweed [4, 24]: 90
- Plant response rating (0 to 100), Pigweed ([4]; preemergence): 100
- Plant response rating, Pigweed [4, 25]: 100
- Plant response rating, Ragweed, Common [5, 23]: 0
- Plant response rating, Ragweed, Common [5, 24]: 0
- Plant response rating (0 to 100), Ragweed, Common ([5]; preemergence): 100
- Plant response rating, Ragweed, Common [5, 25]: 0
- Plant response rating, Nutsedge [6, 23]: 90
- Plant response rating, Nutsedge [6, 24]: 0
- Plant response rating (0 to 100), Nutsedge ([6]; preemergence): 100
- Plant response rating, Nutsedge [6, 25]: 90
- Plant response rating, Nightshade ([7]; Rate 62 g/ha, scale 0 to 100): 90
- Plant response rating, Nightshade [7, 23]: 100
- Plant response rating, Nightshade [7, 26]: 100
- Plant response rating, Velvetleaf [8, 23]: 30
- Plant response rating, Velvetleaf [8, 24]: 20
- Plant response rating (0 to 100), Velvetleaf ([8]; preemergence): 70
- Plant response rating, Velvetleaf [8, 25]: 70
- Plant response rating, Lambsquarters [9, 23]: 100
- Plant response rating, Lambsquarters [9, 24]: 100
- Plant response rating (0 to 100), Lambsquarters ([9]; preemergence): 100
- Plant response rating, Lambsquarters [9, 25]: 100
- Plant response rating, Cupgrass, Woolly [10, 23]: 100
- Plant response rating, Cupgrass, Woolly [10, 24]: 100
- Plant response rating (0 to 100), Cupgrass, Woolly ([10]; preemergence): 100
- Plant response rating, Cupgrass, Woolly [10, 25]: 100
- Plant response rating, Sunflower [11]: 20
- Plant response rating, Soybean [12, 23]: 0
- Plant response rating, Soybean [12, 24]: 0
- Plant response rating (0 to 100), Soybean ([12]; preemergence): 40
- Plant response rating, Soybean [12, 25]: 40
- Plant response rating, Morningglory [13, 23]: 60
- Plant response rating, Morningglory [13, 24]: 0
- Plant response rating (0 to 100), Morningglory ([13]; preemergence): 90
- Plant response rating, Morningglory [13, 25]: 90
- Plant response rating, Foxtail, Giant [14, 23]: 100
- Plant response rating, Foxtail, Giant [14, 24]: 90
- Plant response rating (0 to 100), Foxtail, Giant ([14]; preemergence): 100
- Plant response rating, Foxtail, Giant [14, 25]: 100
- Plant response rating, Corn [15, 23]: 100
- Plant response rating, Corn [15, 24]: 100
- Plant response rating (0 to 100), Corn ([15]; preemergence): 100
- Plant response rating, Corn [15, 25]: 100
- Plant response rating, Kochia [16, 23]: 100
- Plant response rating, Kochia [16, 24]: 100
- Plant response rating (0 to 100), Kochia ([16]; preemergence): 100
- Plant response rating, Kochia [16, 25]: 100
- Plant response rating, Crabgrass [17, 23]: 100
- Plant response rating, Crabgrass [17, 24]: 100
- Plant response rating (0 to 100), Crabgrass ([17]; preemergence): 100
- Plant response rating, Crabgrass [17, 25]: 100
- Plant response rating, Johnsongrass [18, 23]: 70
- Plant response rating, Johnsongrass [18, 24]: 30
- Plant response rating (0 to 100), Johnsongrass ([18]; preemergence): 100
- Plant response rating, Johnsongrass [18, 25]: 80
- Plant response rating, Bermudagrass [19, 23]: 100
- Plant response rating, Bermudagrass [19, 24]: 100
- Plant response rating (0 to 100 where 0 is no effect and 100 is complete control), Bermudagrass ([19]; preemergence): 100
- Plant response rating, Bermudagrass [19, 25]: 100
- Plant response rating, Cocklebur [20, 23]: 0
- Plant response rating, Cocklebur [20, 24]: 0
- Plant response rating (0 to 100), Cocklebur ([20]; preemergence): 30
- Plant response rating, Cocklebur [20, 25]: 30
- Plant response rating, Surinam grass [21, 23]: 100
- Plant response rating, Surinam grass [21, 24]: 100
- Plant response rating (0 to 100), Surinam grass ([21]; preemergence): 100
- Plant response rating, Surinam grass [21, 25]: 100
- Plant response rating, Goosegrass [22, 23]: 100
- Plant response rating, Goosegrass [22, 24]: 100
- Plant response rating (0 to 100), Goosegrass ([22]; preemergence): 100
- Plant response rating, Goosegrass [22, 25]: 100

Compound: CCCC(C)c1ccn(C2OCN(c3cccc(OC(F)F)c3)C2=O)n1 (centres unmarked) [Compound 132]
- Plant response rating, Sunflower [1]: 0
- Plant response rating (0 to 100), Nightshade [2]: 20
- Plant response rating, Sunflower [3]: 20
- Plant response rating, Pigweed [4, 23]: 30
- Plant response rating, Pigweed [4, 24]: 0
- Plant response rating (0 to 100), Pigweed ([4]; preemergence): 100
- Plant response rating, Pigweed [4, 25]: 70
- Plant response rating, Ragweed, Common [5, 23]: 0
- Plant response rating, Ragweed, Common [5, 24]: 0
- Plant response rating (0 to 100), Ragweed, Common ([5]; preemergence): 0
- Plant response rating, Ragweed, Common [5, 25]: 0
- Plant response rating, Nutsedge [6, 23]: 0
- Plant response rating, Nutsedge [6, 24]: 0
- Plant response rating (0 to 100), Nutsedge ([6]; preemergence): 90
- Plant response rating, Nutsedge [6, 25]: 0
- Plant response rating, Nightshade ([7]; Rate 62 g/ha, scale 0 to 100): 0
- Plant response rating, Nightshade [7, 23]: 0
- Plant response rating, Nightshade [7, 26]: 20
- Plant response rating, Velvetleaf [8, 24]: 0
- Plant response rating (0 to 100), Velvetleaf ([8]; preemergence): 0
- Plant response rating, Velvetleaf [8, 25]: 0
- Plant response rating, Lambsquarters [9, 23]: 100
- Plant response rating, Lambsquarters [9, 24]: 100
- Plant response rating (0 to 100), Lambsquarters ([9]; preemergence): 100
- Plant response rating, Lambsquarters [9, 25]: 100
- Plant response rating, Cupgrass, Woolly [10, 23]: 100
- Plant response rating, Cupgrass, Woolly [10, 24]: 90
- Plant response rating (0 to 100), Cupgrass, Woolly ([10]; preemergence): 100
- Plant response rating, Cupgrass, Woolly [10, 25]: 100
- Plant response rating, Sunflower [11]: 20
- Plant response rating, Soybean [12, 23]: 20
- Plant response rating, Soybean [12, 24]: 20
- Plant response rating (0 to 100), Soybean ([12]; preemergence): 30
- Plant response rating, Soybean [12, 25]: 20
- Plant response rating, Morningglory [13, 24]: 0
- Plant response rating (0 to 100), Morningglory ([13]; preemergence): 0
- Plant response rating, Morningglory [13, 25]: 0
- Plant response rating, Foxtail, Giant [14, 23]: 70
- Plant response rating, Foxtail, Giant [14, 24]: 70
- Plant response rating (0 to 100), Foxtail, Giant ([14]; preemergence): 100
- Plant response rating, Foxtail, Giant [14, 25]: 100
- Plant response rating, Corn [15, 23]: 10
- Plant response rating, Corn [15, 24]: 0
- Plant response rating (0 to 100), Corn ([15]; preemergence): 90
- Plant response rating, Corn [15, 25]: 70
- Plant response rating, Kochia [16, 23]: 100
- Plant response rating (0 to 100), Kochia ([16]; preemergence): 100
- Plant response rating, Kochia [16, 25]: 100
- Plant response rating, Crabgrass [17, 23]: 100
- Plant response rating, Crabgrass [17, 24]: 100
- Plant response rating (0 to 100), Crabgrass ([17]; preemergence): 100
- Plant response rating, Crabgrass [17, 25]: 100
- Plant response rating, Johnsongrass [18, 23]: 80
- Plant response rating, Johnsongrass [18, 24]: 50
- Plant response rating (0 to 100), Johnsongrass ([18]; preemergence): 100
- Plant response rating, Johnsongrass [18, 25]: 100
- Plant response rating, Bermudagrass [19, 23]: 100
- Plant response rating, Bermudagrass [19, 24]: 100
- Plant response rating (0 to 100 where 0 is no effect and 100 is complete control), Bermudagrass ([19]; preemergence): 100
- Plant response rating, Bermudagrass [19, 25]: 100
- Plant response rating, Cocklebur [20, 23]: 0
- Plant response rating (0 to 100), Cocklebur ([20]; preemergence): 0
- Plant response rating, Cocklebur [20, 25]: 0
- Plant response rating, Surinam grass [21, 23]: 100
- Plant response rating, Surinam grass [21, 24]: 90
- Plant response rating (0 to 100), Surinam grass ([21]; preemergence): 100
- Plant response rating, Surinam grass [21, 25]: 100
- Plant response rating, Goosegrass [22, 23]: 100
- Plant response rating, Goosegrass [22, 24]: 100
- Plant response rating (0 to 100), Goosegrass ([22]; preemergence): 100
- Plant response rating, Goosegrass [22, 25]: 100
